In ChEMBL document CHEMBL1136343, “Naringenin derivatives as anti-atherogenic agents” (Bioorg Med Chem Lett, 2003):

Experiments:
Type in all cases: functional, organism-based
[1] = system: Oryctolagus cuniculus; experiment: Plasma triglyceride level was analyzed after administration of 0.1%, wt/wt diet in high cholesterol-fed rabbits after 0 weeks
[2] = system: Oryctolagus cuniculus; experiment: Plasma HDL cholesterol level was analyzed after administration of 0.1%, wt/wt diet in high cholesterol-fed rabbits after 8 weeks
[3] = system: Oryctolagus cuniculus; experiment: Plasma triglyceride level was analyzed after administration of 0.1%, wt/wt diet in high cholesterol-fed rabbits after 8 weeks
[4] = system: Oryctolagus cuniculus; experiment: Total plasma cholesterol was analyzed after administration of 0.1%, wt/wt diet in high cholesterol-fed rabbits after 8 weeks
[5] = system: Oryctolagus cuniculus; experiment: Plasma HDL cholesterol level was analyzed after administration of 0.1%, wt/wt diet in high cholesterol-fed rabbits at 0 weeks
[6] = system: Oryctolagus cuniculus; experiment: Total plasma cholesterol was analyzed after administration of 0.1%, wt/wt diet in high cholesterol-fed rabbits at 0 weeks

Compound	Plasma lipid level [1] [mg/dL]	Plasma lipid level [2] [mg/dL]	Plasma lipid level [3] [mg/dL]	Plasma lipid level [4] [mg/dL]	Plasma lipid level [5] [mg/dL]	Plasma lipid level [6] [mg/dL]
CCCCCCCC/C=C/CCCCCCCC(=O)Oc1cc(O)c2c(c1)OC(c1ccc(O)cc1)CC2=O (configuration not stated)	51	78	105	1040	31	51
CCCCCCCCCCCCCCCCC(=O)Oc1cc(O)c2c(c1)OC(c1ccc(O)cc1)CC2=O (configuration not stated)	50	93	85	1060	34	53
